Data: patent US8022052B2, “Inhibition of PPAR gamma expression by specific osteogenic oxysterols” (The Regents of the University of California, priority 2006, dated 2011)
“Also recorded” adds a separate entry of the source.

Experiments:
[1] = system: M2-10B4 (M2) murine pluripotent bone MSC line; assay: Tro-induced adipocyte formation in M2 cells, Oil red O staining; format: cell-based, mouse; settings: M2 cells, 10 μM Tro, oxysterol 5 μM, 10 days
Procedure: (§1) M2 mouse MSCs were purchased from American Type Culture Collection (ATCC, Rockville, Md., USA). […] Cell culture was performed in 24- and 6-well plates for adipogenic differentiation and gene expression studies, respectively, and treatment with test agents was done in growth medium.
Oil red O staining for detection of adipocytes was performed as previously described. […] The number of adipocytes was quantitated by counting Oil red O-positive cells in five separate fields per well, in three wells per experimental condition. The results are reported as the mean of triplicate determination ±SD.
(§2) Adipocyte formation was examined by Oil red O staining. […] PPARγ expression was assessed by RT-qPCR after treating M2 cells with Tro in the presence or absence of 20S. […] M2 cells at confluence were treated with control vehicle, 10 μM Tro, or 5 μM 20S, alone or in combination for 24 hours (FIG. 2A), 48 hours (FIG. 2B), and 96 hours (FIG. 2C). PPARγ mRNA expression was measured by quantitative real-time PCR.
(§3) After 10 days, adipocyte formation was measured by Oil red O staining. The number of adipocytes was determined by counting Oil red O-positive cells in five separate fields per well, in three wells per experimental condition. […] After 48 h, PPARγ mRNA expression was measured by quantitative real-time PCR. […] Luciferase activity was measured after 24 h and normalized for transfection efficiency using the Renilla luciferase activity.
Synthetic oxysterol compounds were studied for inhibition of adipogenesis and PPAR expression. […] After 10 days of treatment, cells were stained with Oil-red-O to detect adipocytes, and the number of positively stained cells was determined using light microscopy. Data from a representative experiment are reported as the mean of triplicate determination (average of five fields per well, 3 wells per experimental condition) ±SD.

PPARγ [2] = assay: PPARγ mRNA expression in M2 cells by RT-qPCR; format: cell-based, mouse; settings: M2 cells, 10 μM Tro, oxysterol 5 μM; 24, 48, 96 h (20S), 48 h (Oxy13)
Procedure: as §1
(§4) Total RNA was extracted with the RNA isolation kit from Stratagene (La Jolla, Calif., USA) according to the manufacturer's instructions. RNA was DNase-treated using DNA-free kit from Ambion (Austin, Tex., USA). Three micrograms of RNA was reverse-transcribed using reverse transcriptase from Stratagene to make single-stranded cDNA. The cDNA was mixed with Qi SYBR Green Supermix (Bio-Rad) for quantitative RT-PCR assay using a Bio-Rad I-cycler IQ quantitative thermocycler. All PCR samples were prepared in triplicate wells of a 96-well plate. After 40 cycles of PCR, melt curves were examined to ensure primer specificity. Fold changes in gene expression were calculated using the ΔΔCt method. […] Primers used are as follows: PPARγ2 (5′-[…]-3′ and 5′-[…]-3′), C/EBPα (5′-[…]-3′ and 5′-[…]-3′), ap2 (5′-[…]-3′ and 5′-[…]-3′), LPL (5′-[…]-3′ and 5′-[…]-[…]), GATA2 (5′-[…]-3′ and 5′-[…]-3′), GATA3 (5′-[…]-3′ and 5′-[…]-3′), GILZ (5′-[…]-3′ and 5′-[…]-3′), and pref-1 (5′-[…]-3′ and 5′-[…]-3′).
as §2, §3
After 48 hours of treatment, RNA was extracted from cells and analyzed for PPARγ expression by Q-RT-PCR. Data from a representative experiment, normalized to GAPDH expression, are reported as the mean of triplicate determinations ±SD.

C/EBPα = C/EBPα mRNA expression in M2 cells by quantitative real-time PCR; format: cell-based, mouse; settings: 10 μM Tro, 5 μM 20S, 24, 48, 96 hours
Procedure: . M2 cells at confluence were treated with control vehicle, 10 μM Tro, or 5 μM 20S, alone or in combination for 24 (FIG. 3A), 48 (FIG. 3B), and 96 (FIG. 3C) hours. C/EBPα mRNA expression was measured by quantitative real-time PCR. Fold changes in gene expression relative to the control were calculated using the ΔΔCt method and reported as the mean of triplicate determination ±SD (p<0.0001 for Tro vs. control and p<0.001 for Tro+20S vs. control at 24 hours (FIG. 3A); p<0.0001 for Tro vs. control and p<0.001 for Tro+20S vs. control at 48 hours (FIG. 3B); p<0.0001 for Tro or Tro+20S vs. control at 96 hours (FIG. 3C).

aP2 = aP2 mRNA expression in M2 cells by quantitative real-time PCR; format: cell-based, mouse; settings: 10 μM Tro, 5 μM 20S, 24, 48, 96 hours
Procedure: . M2 cells at confluence were treated with control vehicle, 10 μM Tro, or 5 μM 20S, alone or in combination for 24 hours (FIG. 4A), 48 hours (FIG. 4B), and 96 hours (FIG. 4C). aP2 mRNA expression was measured by quantitative real-time PCR. Fold changes in gene expression relative to the control were calculated using the ΔΔCt method and reported as the mean of triplicate determination ±SD (p<0.0001 for Tro or Tro+20S vs. control or 20S and p<0.01 for Tro vs. Tro+20S at 24 hours (FIG. 4A); p<0.0001 for Tro or Tro+20S vs. control or 20S and for Tro vs. Tro+20S at 48 hours (FIG. 4B); p<0.0001 for Tro vs. control, 20S, or Tro+20S and p<0.001 for Tro+20S vs. control or 20S at 96 hours (FIG. 4C)).

PPARγ [3] = assay: PPRE luciferase reporter assay (PPARγ transcriptional activity) in M2 cells; format: cell-based, mouse
From the text: (§5) M2 cells at 70% confluency in a 24-well plate were transiently transfected with: a plasmid containing three tandem repeats of the PPAR response element (PPRE) upstream of the basic thymidine kinase promoter (p3xPPRE-TK-Luciferase), a control pTK-Luciferase plasmid devoid of PPRE, a CMX-PPARγ expression plasmid (all kind gifts of Dr Peter Tontonoz), a CMX-RXRα expression plasmid (kind gift of Dr Sotirios Tetradis), and a pTK-Renilla-Luciferase plasmid (Promega, Madison, Wis., USA) using Fugene 6 Transfection Reagents from Roche (Indianapolis, Ind., USA). Luciferase activity assay was performed using Dual-Luciferase Reporter 1000 Assay System (Promega, Madison, Wis., USA). Luciferase reporter activity was normalized to Renilla Luciferase activity. […] For GATA reporter assays, M2 cells were transfected with a GATA Luciferase reporter vector or a control reporter vector (both from Panomics, Fremont, Calif., USA), and pTK-Renilla-Luciferase plasmid.
M2 cells were transiently transfected with a reporter construct containing three tandem repeats of a PPRE (pTK-3×PPRE-Luciferase) or the control plasmid (pTK-Luciferase). Cells were treated with 10 μM Tro or control vehicle, and luciferase activity was measured after 24 and 48 h. […] Because PPARγ and retinoid X receptor (RXR) form obligatory heterodimers, we studied whether 20S would have an effect when both PPARγ and RXRα were overexpressed. […] Luciferase activity was measured after 24 hours and normalized for transfection efficiency using the Renilla luciferase activity. […] Luciferase activity was normalized for transfection efficiency using the Renilla luciferase activity. […] Luciferase activity was measured after 24 hours and normalized to the Renilla luciferase activity.

murine PPARγ2 promoter = assay: PPARγ2 promoter luciferase activity induced by C/EBPα overexpression in M2 cells; format: cell-based, mouse; settings: p19-PPARγ2 with MSV-C/EBPα plasmid, 24 h
Procedure: For PPARγ promoter activity assays, M2 cells were transiently transfected with a murine PPARγ2 promoter construct luciferase plasmid (p19-PPARγ2; (kind gift of Dr Steven McKnight), along with MSV-C/EBPα overexpression plasmid (kind gift of Dr. Sophia Tsai) and pTK-Renilla-Luciferase plasmid. Luciferase activity was measured after 24 h and normalized for transfection efficiency using the Renilla Luciferase activity.
To determine if 20S and Shh inhibit PPARγ expression by acting directly on its promoter, we focused on C/EBPα regulated PPARγ promoter activity.
as §3

[4] = system: GATA2, GATA3, Gilz, and pref-1; assay: GATA2, GATA3, Gilz and pref-1 expression in M2 cells by RT-qPCR; format: cell-based, mouse; settings: 24 and 48 h, data not shown
From the text: as §4

GATA = GATA luciferase reporter in M2 cells; format: cell-based, mouse; settings: 24 and 48 h, data not shown
From the text: as §5

LXRs = assay: LXR activation in M2 cells; format: cell-based, mouse; settings: data not shown
[5] = system: M2-10B4 (M2) murine pluripotent bone MSC line; settings: cited from earlier work

CC(C)CCC[C@](C)(O)[C@H]1CC[C@H]2[C@@H]3CC=C4C[C@@H](O)CC[C@]4(C)[C@H]3CC[C@@]21C [Oxy 20S, 20(S)-hydroxycholesterol]
inhibition of Tro-induced adipocyte formation [1]: completely inhibited; also recorded: significantly inhibited
inhibition of Tro-induced PPARγ mRNA expression (PPARγ [2]): completely inhibited; also recorded: almost completely blocked; also recorded: specifically inhibited; also recorded: inhibits
effect of 20S on Tro-induced C/EBPα mRNA expression (C/EBPα): did not inhibit
effect of 20S on Tro-induced aP2 mRNA expression (aP2): inhibited
effect of 20S on Tro-induced PPRE reporter activity (PPARγ transcriptional activity) (PPARγ [3]; M2 cells overexpressing PPARγ): did not inhibit but rather enhanced; also recorded: not inhibited but rather enhanced; also recorded: does not inhibit
effect of 20S on PPARγ-RXRα induced PPRE reporter activity (PPARγ [3]; M2 cells overexpressing PPARγ and RXRα, 24 hours): did not inhibit; also recorded: enhanced
effect of 20S on Tro-induced PPRE reporter activity (PPARγ [3]; M2 cells without PPARγ overexpression, 24 hours): did not inhibit Tro-induced PPRE reporter activity, but instead caused a small but significant increase
inhibition of PPARγ2 promoter activity induced by C/EBPα overexpression (murine PPARγ2 promoter): greatly inhibited; also recorded: inhibit; also recorded: significantly inhibited
GATA2/GATA3, Gilz, and pref-1 gene expression [4]: does not increase
GATA transcriptional activity (GATA): does not increase
activation of LXRs (LXRs): activation
adipogenic differentiation of M2 cells (previously reported) [5]: inhibit
